Measured values taken from ChEMBL document CHEMBL1275579, “Plasmid-mediated 16S rRNA methylases in aminoglycoside-resistant Enterobacteriaceae isolates in Shanghai, China” (2009).

Assays:
Enterobacteriaceae = test: Antibacterial activity against 16S rRNA methylase and beta-lactamase producing Enterobacteriaceae by CLSI method; format: functional
Enterobacter cloacae = test: Antibacterial activity against armA-positive Enterobacter cloacae expressing KPC-2 beta-lactamase by CLSI method; format: functional

Molecule	MIC50 (Enterobacteriaceae)	MIC90 (Enterobacteriaceae)	MIC (Enterobacter cloacae)
NCC[C@H](O)C(=O)N[C@@H]1C[C@H](N)[C@@H](O[C@H]2O[C@H](CN)[C@@H](O)[C@H](O)[C@H]2O)[C@H](O)[C@H]1O[C@H]1O[C@H](CO)[C@@H](O)[C@H](N)[C@H]1O [AMIKACIN]	> 256 µg/mL	> 256 µg/mL	–
GENTAMICIN	> 256 µg/mL	> 256 µg/mL	–
C[C@@H](O)[C@H]1C(=O)N2C(C(=O)O)=C(SCCNC=N)C[C@H]12 [IMIPENEM ANHYDROUS]	–	–	> 32 µg/mL
